Laboratory results published in the SangsterLogP compilation.

assay: not given; settings: not given

Row | SMILES | logP
1 | CC(=O)Nc1cnc2ccccc2n1 | 1.53
2 | CC12CC3(C)CC(C)(C1)CC(NC(=O)N(CCCl)N=O)(C2)C3 | 5.75
3 | O=NN(CCCl)C(=O)NC1CCCCCCCCCCC1 | 5.64
4 | C[C@]12CCC(=O)C=C1CC[C@@H]1[C@@H]2C(=O)C[C@@]2(C)[C@H]1CC[C@]2(O)C(=O)CO | 1.64
5 | CCCC(=CC(=O)NC(C)CC)c1ccc(Cl)cc1 (stereo not drawn) | 4.34
6 | COc1cc(S(C)=O)ccc1-c1cn2cccnc2n1 (stereo not drawn) | 0.64
7 | C[C@]1(O)CC[C@H]2[C@@H]3CCC4=CC(=O)CC[C@]4(C)[C@@]3(F)[C@@H](O)C[C@@]21C | 2.38
8 | O=NN(CCCl)C(=O)Nc1ccc(Cl)cc1 | 3.16
9 | CCC(C)NC(=O)C=C(N)c1ccc(Cl)cc1 (stereo not drawn) | 2.85
10 | O=NN(CCCl)C(=O)Nc1ccccc1 | 2.49
11 | FC(F)(F)CN(CC(F)(F)F)c1ccc(Br)cc1 | 4.7
12 | COc1ccnc(C#N)n1 | 0.86
13 | CCSC(=O)Oc1cccc2cccnc12 | 2.74
14 | CCC(C)NC(=O)C(=Cc1ccccc1)SC (stereo not drawn) | 3.53
15 | CCC(C)c1cccc(C(C)C)c1O (stereo not drawn) | 3.85
16 | CC(=O)Nc1ccc2nccnc2c1 | 1
17 | CCC(C)NC(=O)C(=Cc1ccccc1)NC(C)=O (stereo not drawn) | 1.76
18 | CC(=O)Nc1cccc2nccnc12 | 1.06
19 | [O-][n+]1cc(-c2ccccc2)ncc1-c1ccccc1 | 3.27
20 | CCOC(=O)c1n[nH]c2ccc(CC)cc2c1=O | 2.01
21 | FC(F)(F)CN(CC(F)(F)F)c1ccccc1 | 3.69
22 | CCC(C)c1cccc(C(C)CC)c1O (stereo not drawn) | 4.38
23 | COc1cccc(NC(=O)N(CCCl)N=O)c1 | 2.66
24 | CCC(C)NC(=O)C(C)=Cc1ccc(Cl)cc1 (stereo not drawn) | 3.63
25 | CCCCOc1ccc(O)cc1 | 2.9
26 | CCC(C)NC(=O)C(=Cc1ccccc1)NC(=O)c1ccccc1 (stereo not drawn) | 2.61
27 | CCC(C)NC(=O)C(C)=Cc1ccccc1 (stereo not drawn) | 3.08
28 | CCC(C)NC(=O)C=C(c1ccccc1)c1ccc(Cl)cc1 (stereo not drawn) | 4.11

assay: method code SF, from Hansch, C. & Leo, A. (1987). Log P database [Dataset]. Pomona College Medicinal Chemistry Project.; settings: not given

Row | SMILES | logP
29 | Cc1cc(CSc2ccccc2C(C)C)c(O)c(C(=O)O)c1 | 4.36
30 | N#CC(=Cc1ccccc1)C(=O)Nc1ccccc1 | 3.41
31 | CCCCC(=Cc1ccccc1)C(=O)NC(C)CC (stereo not drawn) | 4.07
32 | CCOC(=O)c1ccccn1 | 0.88
33 | O=C1C(N2CCN(CCO)CC2)=C(N2CC2)C(=O)C(N2CCN(CCO)CC2)=C1N1CC1 | -0.73
34 | O=C1C=CC(=O)N1 | -0.29
35 | ClC(Cl)=Nc1ccccc1 | 2.54
36 | CNC(=O)C=Cc1ccccc1 | 1.81
37 | CNC(=O)ON=CC(C)(C)[N+](=O)[O-] | 0.36
38 | O=C1CCCCO1 | -0.35
39 | CCC(=O)OCCOc1ccc(C=NO)cc1OC | 1.52
40 | CC(=O)CCC(=O)N(C)c1ccc(S(=O)(=O)N(C)C)cc1 | 0.2
41 | O=C(Nc1ccccc1)c1cccnc1 | 1.73
42 | O=C1CN=C(c2ccc[nH]2)c2cc(Cl)ccc2N1 | 2.59
43 | NC(=O)c1ccc(I)cc1 | 1.99
44 | CCC(C)NC(=O)/C(F)=C\c1ccccc1 (stereo not drawn) | 3.1
45 | CCCOc1cccc(C=C(C(C)=O)C(=O)OCC)c1 | 3.34
46 | CN(C)C(=O)Nc1ccc(OCc2ccc(Cl)cc2Cl)cc1 | 4.1
47 | CN(C)C(=S)Nc1ccccc1 | 1.04
48 | CC(=O)Oc1ccc([N+](=O)[O-])cc1 | 1.5
49 | ClC(Cl)(Cl)c1ccc(C(Cl)(Cl)Cl)cc1 | 4.62

Row | SMILES | logP
50 | COc1ccc(Cn2ccnc2C=Cc2ccc([N+](=O)[O-])o2)cc1 | 1.37
51 | C/C=C/C | 2.31
52 | CC(C)(C)C(=O)Nc1ccccc1 | 1.99
53 | C=C1C(=O)O[C@@H]2/C=C(\C)CC/C=C(\C)CC[C@@H]12 | 2.09
54 | O=C(CO)NCc1ccccc1 | 0.55
55 | CC(=O)OCC(F)(F)F | 1.18
56 | O=c1c2ccccc2sc2ccccc12 | 3.99
57 | O=[N+]([O-])c1ccccc1C(F)(F)F | 2.58
58 | CCOC(=O)CC(=O)C=Cc1ccccc1C | 2.66
59 | COc1cccc2cccnc12 | 1.84
60 | CC(C)(C)C(=O)Nc1ccc(Cl)c(Cl)c1 | 3.88
61 | FC(F)Cl | 1.08
62 | CC(=O)OCCOC(=O)c1ccccc1 | 1.85
63 | CCc1cnc(C=Cc2ccc([N+](=O)[O-])o2)nc1 | 1.55
64 | O=S(=O)(Oc1ccccc1)c1ccccc1 | 3.06
65 | NN=C(c1ccccc1)c1ccccc1 | 2.79
66 | COc1ccc(NC(C)=O)cc1 | 1.1
67 | CC(C)(O)C(F)(F)F | 1.04
68 | CCOP(=O)(OCC)SCn1nnc2ccccc2c1=O | 1.63
69 | O=NN1CCCCC1=O | -1.05

same assay, conditions: pH 0.7

Row | SMILES | logD
70 | O=C(O)c1cc(=O)c2ccccc2o1 | 1.63

same assay, conditions: pH 7.0

Row | SMILES | logD
71 | COC(=O)c1ccc(OC)cc1 | 2.27

same assay, conditions: pH 11.0

Row | SMILES | logD
72 | CN1CCCC[C@H]1c1cccnc1 | 0.96

same assay, conditions: pH 12.3

Row | SMILES | logD
73 | CCCC1CNC(C(=O)NC(C(C)O)C2OC(SC)C(O)C(O)C2O)C1 (stereo not drawn) | 0.04
